Source: patent US20260125400A1, “TYK2 DEGRADERS AND USES THEREOF” (Kymera Therapeutics, Inc., priority 2023, published 2026)
Where two headings read alike, the source gives them in different places.

Biological target: T1, TYK2 (Homo sapiens, UniProt P29597)
T1 construct: Degradation of TYK2 in cells was quantitatively measured using Meso Scale Discovery (MSD) technology; endogenous in cells; host or cells: OCI-LY10
Assay: TYK2 MSD degradation in OCI-LY10 cells
Type: cell-based
Details: 4 to 24 hours incubation; for DC50: read-out: TYK2 MSD OCI-LY10 Rel-DC50
Outline: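 Cellular TYK2 levels were measured by Meso Scale Discovery sandwich detection in RIPA lysates of OCI-LY10 cells exposed 4 to 24 hours at 37° C to nine 1:3 compound doses starting at 1 to 10 μM final; dose-response fitted by four-parameter regression.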

[1] = TYK2 degradation in OCI-LY10 cells

T1 sequence (P29597 whole entry): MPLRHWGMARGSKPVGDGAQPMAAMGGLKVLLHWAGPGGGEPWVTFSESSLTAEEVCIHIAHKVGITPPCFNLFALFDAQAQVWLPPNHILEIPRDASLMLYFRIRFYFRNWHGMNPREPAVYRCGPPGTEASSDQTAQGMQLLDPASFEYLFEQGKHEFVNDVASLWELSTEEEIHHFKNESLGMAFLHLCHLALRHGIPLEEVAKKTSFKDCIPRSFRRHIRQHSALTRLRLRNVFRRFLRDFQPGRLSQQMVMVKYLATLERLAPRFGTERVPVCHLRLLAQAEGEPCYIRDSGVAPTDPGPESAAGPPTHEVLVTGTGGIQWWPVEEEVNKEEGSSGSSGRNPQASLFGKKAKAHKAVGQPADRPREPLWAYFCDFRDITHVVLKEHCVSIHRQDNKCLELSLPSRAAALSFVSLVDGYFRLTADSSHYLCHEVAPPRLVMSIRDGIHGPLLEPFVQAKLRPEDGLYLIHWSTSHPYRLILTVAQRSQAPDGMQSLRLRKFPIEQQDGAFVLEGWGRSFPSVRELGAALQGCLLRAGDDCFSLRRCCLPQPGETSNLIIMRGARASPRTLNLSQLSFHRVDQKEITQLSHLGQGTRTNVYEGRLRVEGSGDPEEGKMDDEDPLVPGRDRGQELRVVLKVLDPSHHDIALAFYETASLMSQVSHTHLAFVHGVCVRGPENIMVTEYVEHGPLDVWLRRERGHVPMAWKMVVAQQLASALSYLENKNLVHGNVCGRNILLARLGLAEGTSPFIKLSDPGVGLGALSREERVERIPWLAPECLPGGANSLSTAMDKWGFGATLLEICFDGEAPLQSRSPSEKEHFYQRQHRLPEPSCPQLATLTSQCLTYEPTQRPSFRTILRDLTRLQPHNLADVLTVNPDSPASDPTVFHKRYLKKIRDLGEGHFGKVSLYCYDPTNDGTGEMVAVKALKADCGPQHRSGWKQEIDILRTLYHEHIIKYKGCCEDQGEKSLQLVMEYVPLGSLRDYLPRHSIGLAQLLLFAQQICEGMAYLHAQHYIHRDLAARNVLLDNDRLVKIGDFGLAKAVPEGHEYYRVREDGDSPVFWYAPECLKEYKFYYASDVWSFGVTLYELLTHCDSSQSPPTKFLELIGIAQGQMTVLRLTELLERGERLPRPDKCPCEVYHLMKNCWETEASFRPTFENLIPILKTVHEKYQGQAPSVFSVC

| SMILES | TYK2 MSD OCI-LY10 Dmax % (OCI-LY10 cells) | DC50 (OCI-LY10 cells) | TYK2 MSD OCI-LY10 Dmax % [1] | DC50 [1] |
| --- | --- | --- | --- | --- |
| CNc1cc(N2CCc3c(-c4ccc(CN5CCC6(CCN(C(=O)c7cc(F)c(Cl)c(N8CCC(=O)NC8=O)c7)CC6)C(F)(F)C5)cn4)cccc32)nn2c(C(=O)N[C@@H]3C[C@@H]3F)cnc12 [I-656] | B (B (90 to >75%)) | < 1 nM | – | – |
| CNc1cc(N2CCc3c(CN4CCC(N5CCC6(CCN(C(=O)c7cc(N8CCC(=O)NC8=O)c(C)cc7Cl)CC6)CC5)C(F)(F)C4)cccc32)nn2c(C(=O)N[C@@H]3C[C@@H]3F)cnc12 (some centres unmarked) [I-845] | – | – | A (A (>90%)) | < 1 nM |
| CNc1cc(N2CCc3c(-c4ccc(CN5CC6(CCN(Cc7ccc(N8CCC(=O)NC8=O)c(Cl)c7)CC6(F)F)C5)cn4)cccc32)nn2c(C(=O)N[C@H]3C[C@H]3F)cnc12 [I-87] | – | – | D (D (<50%)) | < 10 nM |
| CNc1cc(N2CCc3c(-c4ncc(C(=O)N5CC6(CCN(C(=O)c7cc(C)c(Cl)c(N8CCC(=O)NC8=O)c7)CC6)C5)cc4F)cccc32)nn2c(C(=O)N[C@@H]3CC[C@H]3OC)cnc12 [I-1140] | – | – | A (A (>90%)) | < 1 nM |
| CNc1cc(N2CCc3c(C#CCN4CCC(N5CC6(CN(C(=O)c7ccc(Cl)c(N8CCC(=O)NC8=O)c7)C6)C5)C(F)(F)C4)cccc32)nn2c(C(=O)N[C@@H]3C[C@@H]3F)cnc12 (some centres unmarked) [I-795] | – | – | A (A (>90%)) | < 1 nM |
| CNc1cc(N2CCc3c(-c4ncc(CN5CC6(CCN(C(=O)c7ccc(OC)c(N8CCC(=O)NC8=O)c7)CC6(F)F)C5)cc4F)cccc32)nn2c(C(=O)N[C@@H]3C[C@@H]3F)cnc12 [I-1019] | – | – | A (A (>90%)) | < 1 nM |
| CNc1cc(N2CCc3c(-c4ccc(CN5CC6(CCN(C(=O)c7cc(C)c(C)c(N8CCC(=O)NC8=O)c7)CC6(F)F)C5)cn4)cccc32)nn2c(C(=O)N[C@@H]3C[C@@H]3F)cnc12 [I-796] | – | – | A (A (>90%)) | < 1 nM |
| CNc1cc(N2CCc3c(-c4ncc(CN5CCC6(CCN(C(=O)c7cc(C)c(Cl)c(N8CCC(=O)NC8=O)c7)CC6)C(F)(F)C5)cc4F)cccc32)nn2c(C(=O)N[C@@H]3CC[C@H]3OC)cnc12 [I-1106] | – | – | A (A (>90%)) | < 10 nM |
| CNc1cc(N2CCc3c(-c4ncc(CN5CC6(CCN(C(=O)c7ccc(C)c(N8CCC(=O)NC8=O)c7)CC6(F)F)C5)cc4F)cccc32)nn2c(C(=O)N[C@@H]3CC[C@H]3OC)cnc12 [I-1004] | – | – | A (A (>90%)) | < 1 nM |
| CNc1cc(N2CCc3c(CN4CCC(N5CCC6(CCN(C(=O)c7cc(Cl)c(C)c(N8CCC(=O)NC8=O)c7)CC6)CC5)C(F)(F)C4)cccc32)nn2c(C(=O)NC3CCC3OC)cnc12 (centres unmarked) [I-1000] | – | – | A (A (>90%)) | < 1 nM |
| CNc1cc(N2CCc3c(-c4ccc(CN5CCC6(CCN(C(=O)c7ccc(Cl)c(N8CCC(=O)NC8=O)c7)CC6)C(F)(F)C5)cn4)cccc32)nn2c(C(=O)NC3CC3)cnc12 [I-57] | – | – | B (B (90 to >75%)) | < 10 nM |
| CNc1cc(N2CCc3c(-c4ccc(CN5CCC(N6CCN(c7ccc8c(c7F)n(C)c(=O)n8C7CCC(=O)NC7=O)CC6)C(F)(F)C5)cn4)cccc32)nn2c(C(=O)NC3CC3)cnc12 (centres unmarked) [I-69] | – | – | B (B (90 to >75%)) | < 10 nM |
| CNc1cc(N2CCc3c(CN4CCC(N5CCC6(CCN(C(=O)c7ccc(Cl)c(N8CCC(=O)NC8=O)c7)CC6)C5)C(F)(F)C4)cccc32)nn2c(C(=O)N[C@@H]3C[C@@H]3F)cnc12 (some centres unmarked) [I-805] | – | – | A (A (>90%)) | < 1 nM |
